Results: paper PMC6022752 (Journal of the American Chemical Society, 2018)
Values belong to the compound of their own block, whether it stands above or below them.

What was measured:
[1] = cited from earlier work
TYK2 = TYK2 (Homo sapiens, UniProt P29597); experiment: 369-kinase HotSpot kinome screen: TYK2; assay type: biochemical; conditions: read-out: Tyk2 inhibition, from kinome screen
PDGFRa = PDGFRa (Homo sapiens, UniProt P16234); experiment: HotSpot 10-dose dose-response kinase assay: PDGFRa; assay type: biochemical; conditions: read-out: Dose-response IC50 PDGFRa; 10-dose dose-response, 1 μM ATP
Sequence of PDGFRa (P16234 24-1089): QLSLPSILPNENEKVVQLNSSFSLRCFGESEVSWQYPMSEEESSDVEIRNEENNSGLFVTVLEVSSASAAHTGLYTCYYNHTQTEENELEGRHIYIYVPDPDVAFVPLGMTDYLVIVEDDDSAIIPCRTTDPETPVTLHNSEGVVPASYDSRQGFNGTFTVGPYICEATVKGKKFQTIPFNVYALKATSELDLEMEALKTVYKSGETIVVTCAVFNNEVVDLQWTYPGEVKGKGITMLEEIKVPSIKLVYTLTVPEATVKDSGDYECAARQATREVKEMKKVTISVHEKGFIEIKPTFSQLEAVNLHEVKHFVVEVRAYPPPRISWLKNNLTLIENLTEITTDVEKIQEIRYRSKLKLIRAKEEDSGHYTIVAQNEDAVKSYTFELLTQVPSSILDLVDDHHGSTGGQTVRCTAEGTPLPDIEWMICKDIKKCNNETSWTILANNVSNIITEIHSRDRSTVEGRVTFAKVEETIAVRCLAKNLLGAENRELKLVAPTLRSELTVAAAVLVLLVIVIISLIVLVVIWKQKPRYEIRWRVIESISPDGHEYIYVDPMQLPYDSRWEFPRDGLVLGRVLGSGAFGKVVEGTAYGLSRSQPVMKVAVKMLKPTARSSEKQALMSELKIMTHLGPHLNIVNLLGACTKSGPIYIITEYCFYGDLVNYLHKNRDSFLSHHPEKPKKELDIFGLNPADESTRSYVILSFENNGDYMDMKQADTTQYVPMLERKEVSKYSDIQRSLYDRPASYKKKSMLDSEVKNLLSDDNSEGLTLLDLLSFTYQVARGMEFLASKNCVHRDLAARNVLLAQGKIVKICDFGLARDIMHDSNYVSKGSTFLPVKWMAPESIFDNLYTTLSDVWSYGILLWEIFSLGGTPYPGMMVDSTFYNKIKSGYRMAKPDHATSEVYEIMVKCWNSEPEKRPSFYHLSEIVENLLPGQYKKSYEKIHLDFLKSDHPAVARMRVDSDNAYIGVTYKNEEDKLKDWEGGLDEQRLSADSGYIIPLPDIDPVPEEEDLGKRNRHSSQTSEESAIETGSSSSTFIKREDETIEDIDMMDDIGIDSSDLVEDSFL

JAK3 = JAK3 (Homo sapiens, UniProt P52333); experiment: HotSpot 10-dose dose-response kinase assay: JAK3; assay type: biochemical; conditions: read-out: Dose-response IC50 JAK3; 10-dose dose-response, 1 μM ATP
Sequence of JAK3 (P52333 whole entry): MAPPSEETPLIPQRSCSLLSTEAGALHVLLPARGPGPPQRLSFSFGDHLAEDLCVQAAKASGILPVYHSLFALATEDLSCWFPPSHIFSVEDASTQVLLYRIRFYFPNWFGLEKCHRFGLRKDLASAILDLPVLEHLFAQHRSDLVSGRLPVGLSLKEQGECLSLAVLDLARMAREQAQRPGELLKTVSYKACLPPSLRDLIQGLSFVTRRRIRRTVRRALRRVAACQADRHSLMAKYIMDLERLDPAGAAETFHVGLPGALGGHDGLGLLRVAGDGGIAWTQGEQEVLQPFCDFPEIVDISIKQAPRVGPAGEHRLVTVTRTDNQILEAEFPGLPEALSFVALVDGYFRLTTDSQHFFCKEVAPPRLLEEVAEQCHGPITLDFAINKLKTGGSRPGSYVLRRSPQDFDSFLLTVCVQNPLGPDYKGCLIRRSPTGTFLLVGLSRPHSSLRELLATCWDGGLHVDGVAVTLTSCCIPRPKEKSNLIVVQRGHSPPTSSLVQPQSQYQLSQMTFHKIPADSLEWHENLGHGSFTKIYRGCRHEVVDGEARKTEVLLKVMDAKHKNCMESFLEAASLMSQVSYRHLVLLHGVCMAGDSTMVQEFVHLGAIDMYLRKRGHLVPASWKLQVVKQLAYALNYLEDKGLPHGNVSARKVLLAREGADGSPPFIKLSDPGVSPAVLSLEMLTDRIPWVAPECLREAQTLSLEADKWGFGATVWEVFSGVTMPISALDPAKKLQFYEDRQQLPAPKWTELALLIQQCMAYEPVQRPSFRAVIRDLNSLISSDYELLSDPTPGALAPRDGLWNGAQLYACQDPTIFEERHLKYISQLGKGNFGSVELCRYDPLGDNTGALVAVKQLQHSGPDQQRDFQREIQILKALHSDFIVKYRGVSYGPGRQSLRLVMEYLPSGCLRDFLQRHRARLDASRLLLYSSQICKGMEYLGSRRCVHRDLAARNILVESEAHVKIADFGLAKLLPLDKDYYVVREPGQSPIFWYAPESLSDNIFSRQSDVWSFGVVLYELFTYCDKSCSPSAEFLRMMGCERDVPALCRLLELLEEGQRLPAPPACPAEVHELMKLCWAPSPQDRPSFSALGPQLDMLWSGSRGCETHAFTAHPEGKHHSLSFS

JAK2 = JAK2 (Homo sapiens, UniProt O60674); experiment: HotSpot 10-dose dose-response kinase assay: JAK2; assay type: biochemical; conditions: read-out: Dose-response IC50 JAK2; 10-dose dose-response, 1 μM ATP
PKCepsilon = PKCepsilon (Homo sapiens, UniProt Q02156); experiment: HotSpot 10-dose dose-response kinase assay: PKCepsilon; assay type: biochemical; conditions: read-out: Dose-response IC50 PKCepsilon; 10-dose dose-response, 1 μM ATP
DDR2 = DDR2 (Homo sapiens, UniProt Q16832); experiment: HotSpot 10-dose dose-response kinase assay: DDR2; assay type: biochemical; conditions: read-out: Dose-response IC50 DDR2; 10-dose dose-response, 1 μM ATP
JAK1 = JAK1 (Homo sapiens, UniProt P23458); experiment: HotSpot 10-dose dose-response kinase assay: JAK1; assay type: biochemical; conditions: read-out: Dose-response IC50 JAK1; 10-dose dose-response, 1 μM ATP
Sequence of JAK1 (P23458 whole entry): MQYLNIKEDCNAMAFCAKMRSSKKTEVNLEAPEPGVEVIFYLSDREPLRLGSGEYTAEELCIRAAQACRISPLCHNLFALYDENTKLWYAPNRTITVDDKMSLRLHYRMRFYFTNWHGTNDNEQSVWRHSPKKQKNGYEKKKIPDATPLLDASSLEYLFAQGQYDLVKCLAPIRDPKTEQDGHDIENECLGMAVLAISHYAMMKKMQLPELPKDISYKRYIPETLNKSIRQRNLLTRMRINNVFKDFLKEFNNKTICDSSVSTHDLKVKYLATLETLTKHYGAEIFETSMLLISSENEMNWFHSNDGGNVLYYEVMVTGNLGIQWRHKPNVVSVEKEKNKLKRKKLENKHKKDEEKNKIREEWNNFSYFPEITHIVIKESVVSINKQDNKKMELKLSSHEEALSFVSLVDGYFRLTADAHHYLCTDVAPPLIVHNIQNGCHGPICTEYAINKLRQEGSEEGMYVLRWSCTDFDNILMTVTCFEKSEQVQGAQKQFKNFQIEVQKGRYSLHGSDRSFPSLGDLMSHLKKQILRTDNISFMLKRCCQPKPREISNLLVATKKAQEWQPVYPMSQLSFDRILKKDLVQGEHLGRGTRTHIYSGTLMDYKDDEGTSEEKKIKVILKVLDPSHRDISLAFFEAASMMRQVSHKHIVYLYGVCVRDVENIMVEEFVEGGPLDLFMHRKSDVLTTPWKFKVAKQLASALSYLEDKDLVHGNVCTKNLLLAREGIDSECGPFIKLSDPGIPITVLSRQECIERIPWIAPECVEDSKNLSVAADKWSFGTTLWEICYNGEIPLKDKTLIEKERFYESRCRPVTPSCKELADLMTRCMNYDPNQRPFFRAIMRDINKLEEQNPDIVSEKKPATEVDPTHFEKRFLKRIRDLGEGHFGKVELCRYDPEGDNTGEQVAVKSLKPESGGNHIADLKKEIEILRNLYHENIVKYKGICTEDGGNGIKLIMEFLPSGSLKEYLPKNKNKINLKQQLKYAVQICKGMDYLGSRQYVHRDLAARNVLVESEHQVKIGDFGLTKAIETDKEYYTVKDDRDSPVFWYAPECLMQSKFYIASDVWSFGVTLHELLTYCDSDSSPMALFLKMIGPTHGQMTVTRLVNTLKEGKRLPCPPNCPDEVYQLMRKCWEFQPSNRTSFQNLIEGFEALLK

ABL1 = ABL1 (Homo sapiens, UniProt P00519); experiment: HotSpot 10-dose dose-response kinase assay: ABL1; assay type: biochemical; conditions: read-out: Dose-response IC50 ABL1; 10-dose dose-response, 1 μM ATP
EGFR (L858R, T790M) = EGFR (L858R, T790M) (Homo sapiens, UniProt P00533, L858R/T790M); experiment: HotSpot 10-dose dose-response kinase assay: EGFR; assay type: biochemical; conditions: read-out: Dose-response IC50 EGFR (L858R, T790M); 10-dose dose-response, 1 μM ATP
RET = RET (Homo sapiens, UniProt P07949); experiment: HotSpot 10-dose dose-response kinase assay: RET; assay type: biochemical; conditions: read-out: Dose-response IC50 RET; 10-dose dose-response, 1 μM ATP
EGFR (T790M) = EGFR (T790M) (Homo sapiens, UniProt P00533, T790M); experiment: HotSpot 10-dose dose-response kinase assay: EGFR; assay type: biochemical; conditions: read-out: Dose-response IC50 EGFR (T790M); 10-dose dose-response, 1 μM ATP
EGFR (L858R) = EGFR (L858R) (Homo sapiens, UniProt P00533, L858R); experiment: HotSpot 10-dose dose-response kinase assay: EGFR; assay type: biochemical; conditions: read-out: Dose-response IC50 EGFR (L858R); 10-dose dose-response, 1 μM ATP
EGFR (G719S) = EGFR (G719S) (Homo sapiens, UniProt P00533, G719S); experiment: HotSpot 10-dose dose-response kinase assay: EGFR; assay type: biochemical; conditions: read-out: Dose-response IC50 EGFR (G719S); 10-dose dose-response, 1 μM ATP
EGFR (d746–750) = EGFR (d746–750) (Homo sapiens, UniProt P00533, DEL746-750); experiment: HotSpot 10-dose dose-response kinase assay: EGFR; assay type: biochemical; conditions: read-out: Dose-response IC50 EGFR (d746–750); 10-dose dose-response, 1 μM ATP
BRAF = BRAF (Homo sapiens, UniProt P15056); experiment: HotSpot 10-dose dose-response kinase assay: BRAF; assay type: biochemical; conditions: read-out: Dose-response IC50 BRAF; 10-dose dose-response, 1 μM ATP
Sequence of BRAF (P15056 whole entry): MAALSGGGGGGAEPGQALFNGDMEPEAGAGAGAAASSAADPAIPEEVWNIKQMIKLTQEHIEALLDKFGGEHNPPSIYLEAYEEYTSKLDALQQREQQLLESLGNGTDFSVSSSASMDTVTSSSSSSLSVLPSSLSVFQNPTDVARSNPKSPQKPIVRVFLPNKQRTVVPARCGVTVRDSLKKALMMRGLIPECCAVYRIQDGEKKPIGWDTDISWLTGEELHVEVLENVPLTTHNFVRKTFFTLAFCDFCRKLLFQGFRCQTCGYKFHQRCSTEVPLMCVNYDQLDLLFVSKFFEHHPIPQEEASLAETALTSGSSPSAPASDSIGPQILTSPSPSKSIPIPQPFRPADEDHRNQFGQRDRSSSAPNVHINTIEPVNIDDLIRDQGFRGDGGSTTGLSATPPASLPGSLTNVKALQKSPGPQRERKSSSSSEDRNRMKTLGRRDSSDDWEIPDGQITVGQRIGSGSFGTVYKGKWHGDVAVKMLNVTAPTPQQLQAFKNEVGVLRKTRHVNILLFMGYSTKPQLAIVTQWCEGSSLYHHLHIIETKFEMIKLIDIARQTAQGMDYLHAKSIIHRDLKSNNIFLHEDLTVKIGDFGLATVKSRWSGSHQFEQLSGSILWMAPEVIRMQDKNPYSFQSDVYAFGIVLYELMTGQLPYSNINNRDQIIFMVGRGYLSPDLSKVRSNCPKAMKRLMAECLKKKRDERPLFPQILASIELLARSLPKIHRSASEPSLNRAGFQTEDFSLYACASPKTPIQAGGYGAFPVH

BRAF (V599E) = BRAF (V599E) (Homo sapiens, UniProt P15056, V600E); experiment: HotSpot 10-dose dose-response kinase assay: BRAF; assay type: biochemical; conditions: read-out: Dose-response IC50 BRAF (V599E); 10-dose dose-response, 1 μM ATP
Sequence of BRAF (V599E) (P15056 416-766 V600E limits assumed): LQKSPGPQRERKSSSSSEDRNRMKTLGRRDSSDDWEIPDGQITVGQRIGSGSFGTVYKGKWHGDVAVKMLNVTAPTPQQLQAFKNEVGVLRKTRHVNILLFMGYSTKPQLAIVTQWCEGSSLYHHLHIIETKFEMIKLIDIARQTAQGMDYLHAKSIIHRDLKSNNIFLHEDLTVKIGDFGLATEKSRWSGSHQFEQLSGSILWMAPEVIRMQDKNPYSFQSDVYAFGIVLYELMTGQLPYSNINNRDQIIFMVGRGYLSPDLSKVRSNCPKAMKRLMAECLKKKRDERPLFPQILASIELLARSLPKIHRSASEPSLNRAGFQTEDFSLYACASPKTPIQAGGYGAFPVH

ANT = conditions: read-out: IC50 ANT inhibition; cited from earlier work
kinases = experiment: Other kinase assays; assay type: biochemical; conditions: Figures S10 and S11
EGFR = EGFR (Homo sapiens, UniProt P00533); experiment: EGFR wild type kinase-domain inhibition assay
[2] = test system: MCF-7, SW620, SW480, H460, A549, and MDA-MB-231 cell lines; experiment: GGOH rescue of cell growth inhibition; assay type: cell-based; conditions: six cell lines, 20 μM GGOH

SMILES: Nc1ncnc2c1ncn2[C@@H]1O[C@H](COP(=O)(O)OP(=O)(O)OP(=O)(O)O)[C@@H](O)[C@H]1O [ATP]
pKa4 [1]: 7.1

SMILES: Nc1ncnc2c1ncn2[C@@H]1O[C@H](COP(=O)(O)OP(=O)(O)C(Cl)(Cl)P(=O)(O)O)[C@@H](O)[C@H]1O [compound 4, adenosine 5′-(beta, gamma-dichloro-methylene) diphosphate]
IC50 (TYK2): ~230 nM | IC50 (PDGFRa): 4 nM | IC50 (JAK3): 5 nM | IC50 (JAK2): 13 nM | IC50 (PKCepsilon): 43 nM | IC50 (DDR2): 47 nM | IC50 (JAK1): 66 nM | IC50 (ABL1): 79 nM | IC50 (EGFR (L858R, T790M)): 80 nM | IC50 (RET): 140 nM | IC50 (EGFR (T790M)): 270 nM | IC50 (EGFR (L858R)): 490 nM | IC50 (EGFR (G719S)): 760 nM | IC50 (EGFR (d746–750)): 4300 nM | IC50 (BRAF): 6400 nM | IC50 (BRAF (V599E)): 230000 nM | IC50 (ANT): ~50000 nM

SMILES: Nc1ncnc2c1ncn2C1OC(COP(=O)(O)OP(=O)(O)C(Sc2ccc(Cl)cc2)P(=O)(O)O)C(O)C1O (stereo not shown) [compound 5]
activity in other kinase assays (kinases): low activity

IC50 (EGFR): 72000 ± 12000 nM
SMILES: O=P(O)(O)C(O)(Cn1ccnc1)P(=O)(O)O [compound 6, zoledronate]

SMILES: Nc1ncnc2c1ncn2[C@@H]1O[C@H](COP(=O)(O)OP(=O)(O)C(Br)(Br)P(=O)(O)O)[C@@H](O)[C@H]1O [compound 23]
IC50 (EGFR (L858R, T790M)): 16 nM

SMILES: NCCC(O)(P(=O)(O)O)P(=O)(O)O [pamidronate]
GGOH rescue of growth inhibition [2]: very small rescue effects
